Calls of active or inactive are those of the source. The rule behind the calls is not given here. Residues, ends and D or L forms follow the SMILES beside them. *: point of attachment. Palmitoyl = CCCCCCCCCCCCCCCC(=O)*
Key:
Assay type in all cases: functional, cell-based
[1] = target: T1, Apelin receptor (Homo sapiens) (UniProt P35414); assay: Agonist activity at APJ receptor in HEK293 cells assessed as inhibition of forskolin-induced cAMP level incubated for 5 mins prior to forskolin challenge measured after 30 mins by TR-FRET assay relative to [pyr1]-apelin-13
T1 sequence (whole entry): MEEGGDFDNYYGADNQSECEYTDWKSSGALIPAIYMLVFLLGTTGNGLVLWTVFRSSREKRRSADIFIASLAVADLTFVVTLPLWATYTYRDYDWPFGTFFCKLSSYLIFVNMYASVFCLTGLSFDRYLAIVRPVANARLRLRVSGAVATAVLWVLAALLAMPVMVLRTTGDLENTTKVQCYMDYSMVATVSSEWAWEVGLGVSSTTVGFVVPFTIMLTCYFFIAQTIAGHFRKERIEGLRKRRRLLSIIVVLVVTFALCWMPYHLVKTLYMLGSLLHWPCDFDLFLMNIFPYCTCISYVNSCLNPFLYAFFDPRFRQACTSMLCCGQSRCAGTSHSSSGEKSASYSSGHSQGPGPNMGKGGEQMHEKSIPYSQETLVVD

Apelin receptor = target: T2, Apelin receptor (Homo sapiens, UniProt P35414); assay: Agonist activity at APJ receptor in HEK293 cells assessed as inhibition of forskolin-induced cAMP level incubated for 5 mins prior to forskolin challenge measured after 30 mins by TR-FRET assay
T2 sequence (P35414 whole entry): T1 sequence (whole entry)

[2] = target: Sphingosine 1-phosphate receptor Edg-5/Sphingosine 1-phosphate receptor Edg-3 (Homo sapiens) (UniProt O95136+Q99500); assay: Agonist activity at S1P2/3 receptor in HEK293 cells assessed as inhibition of forskolin-induced cAMP level after 1 hr by alphascreen immunoassay

SMILES	%max [1] [%]	EC50 (Apelin receptor) [µM]	Activity [2]
CCCCCCCCCCCCCCCC(=O)N[C@H](C(=O)N[C@H](C(=O)N[C@@H](CC(C)C)C(=O)N1CCC[C@H]1C(=O)N[C@@H](CC(C)C)C(=O)N[C@@H](Cc1c[nH]c2ccccc12)C(=O)N[C@@H](C)C(=O)N[C@@H](C)C(=O)N[C@@H](Cc1ccc(O)cc1)C(=O)N[C@H](C(=O)N[C@@H](Cc1ccc(O)cc1)C(=O)N[C@@H](CCCNC(=N)N)C(N)=O)[C@@H](C)O)[C@@H](C)O)C(C)C (Palmitoyl-VTLPLWAAYTYR-NH2)	53.6	0.0215	
CCCCCCCCCCCCC/C=C/[C@@H](O)[C@@H](N)COP(=O)(O)O			Active
CCCCCCCCCCCCCCCC(=O)N[C@H](C(=O)N[C@H](C(=O)N[C@@H](CC(C)C)C(=O)N1CCC[C@H]1C(=O)N[C@@H](CC(C)C)C(=O)N[C@@H](Cc1c[nH]c2ccccc12)C(=O)N[C@@H](C)C(=O)N[C@H](C(=O)N[C@@H](Cc1ccc(O)cc1)C(=O)N[C@@H](C)C(=O)N[C@@H](Cc1ccc(O)cc1)C(=O)N[C@@H](CCCNC(=N)N)C(N)=O)[C@@H](C)O)[C@@H](C)O)C(C)C (Palmitoyl-VTLPLWATYAYR-NH2)		> 30	
CCCCCCCCCCCCCCCC(=O)N[C@H](C(=O)N[C@H](C(=O)N[C@@H](CC(C)C)C(=O)N1CCC[C@H]1C(=O)N[C@@H](CC(C)C)C(=O)N[C@@H](C)C(=O)N[C@@H](C)C(=O)N[C@H](C(=O)N[C@@H](Cc1ccc(O)cc1)C(=O)N[C@H](C(=O)N[C@@H](Cc1ccc(O)cc1)C(=O)N[C@@H](CCCNC(=N)N)C(N)=O)[C@@H](C)O)[C@@H](C)O)[C@@H](C)O)C(C)C (Palmitoyl-VTLPLAATYTYR-NH2)		> 30	
CCCCCCCCCCCCCCCC(=O)N[C@H](C(=O)N[C@H](C(=O)N[C@@H](CC(C)C)C(=O)N1CCC[C@H]1C(=O)N[C@@H](CC(C)C)C(=O)N[C@@H](Cc1c[nH]c2ccccc12)C(=O)N[C@@H](C)C(=O)N[C@H](C(=O)N[C@@H](C)C(=O)N[C@H](C(=O)N[C@@H](Cc1ccc(O)cc1)C(=O)N[C@@H](CCCNC(=N)N)C(N)=O)[C@@H](C)O)[C@@H](C)O)[C@@H](C)O)C(C)C (Palmitoyl-VTLPLWATATYR-NH2)	84.3	0.0957	
CCCCCCCCCCCCCCCC(=O)N[C@H](C(=O)N[C@H](C(=O)N[C@@H](CC(C)C)C(=O)N1CCC[C@H]1C(=O)N[C@@H](CC(C)C)C(=O)N[C@@H](Cc1c[nH]c2ccccc12)C(=O)N[C@@H](C)C(=O)N[C@H](C(N)=O)[C@@H](C)O)[C@@H](C)O)C(C)C (Palmitoyl-VTLPLWAT-NH2)		> 30	
CCCCCCCCCCCCCCCC(=O)N1CCC[C@H]1C(=O)N[C@@H](CC(C)C)C(=O)N[C@@H](Cc1c[nH]c2ccccc12)C(=O)N[C@@H](C)C(=O)N[C@H](C(=O)N[C@@H](Cc1ccc(O)cc1)C(=O)N[C@H](C(=O)N[C@@H](Cc1ccc(O)cc1)C(=O)N[C@@H](CCCNC(=N)N)C(N)=O)[C@@H](C)O)[C@@H](C)O (Palmitoyl-PLWATYTYR-NH2)		> 30	

Continued, in another order:

%max [1] [%]	EC50 (Apelin receptor) [µM]	SMILES	Activity [2]
	> 30	CCCCCCCCCCCCCCCC(=O)N[C@H](C(=O)N[C@H](C(=O)N[C@@H](CC(C)C)C(=O)N[C@@H](C)C(=O)N[C@@H](CC(C)C)C(=O)N[C@@H](Cc1c[nH]c2ccccc12)C(=O)N[C@@H](C)C(=O)N[C@H](C(=O)N[C@@H](Cc1ccc(O)cc1)C(=O)N[C@H](C(=O)N[C@@H](Cc1ccc(O)cc1)C(=O)N[C@@H](CCCNC(=N)N)C(N)=O)[C@@H](C)O)[C@@H](C)O)[C@@H](C)O)C(C)C (Palmitoyl-VTLALWATYTYR-NH2)	
	> 30	CCCCCCCCCCCCCCCC(=O)N[C@H](C(=O)N[C@H](C(=O)N[C@@H](CC(C)C)C(=O)N1CCC[C@H]1C(=O)N[C@@H](C)C(=O)N[C@@H](Cc1c[nH]c2ccccc12)C(=O)N[C@@H](C)C(=O)N[C@H](C(=O)N[C@@H](Cc1ccc(O)cc1)C(=O)N[C@H](C(=O)N[C@@H](Cc1ccc(O)cc1)C(=O)N[C@@H](CCCNC(=N)N)C(N)=O)[C@@H](C)O)[C@@H](C)O)[C@@H](C)O)C(C)C (Palmitoyl-VTLPAWATYTYR-NH2)	
62.5	0.0027	CCCCCCCCCCCCCCCC(=O)N[C@H](C(=O)N[C@H](C(=O)N[C@@H](CC(C)C)C(=O)N1CCC[C@H]1C(=O)N[C@@H](CC(C)C)C(=O)N[C@@H](Cc1c[nH]c2ccccc12)C(=O)N[C@@H](C)C(=O)N[C@H](C(=O)N[C@@H](Cc1ccc(O)cc1)C(=O)N[C@H](C(=O)N[C@@H](C)C(=O)N[C@@H](CCCNC(=N)N)C(N)=O)[C@@H](C)O)[C@@H](C)O)[C@@H](C)O)C(C)C (Palmitoyl-VTLPLWATYTAR-NH2)	
	> 30	CCCCCCCCCCCCCCCC(=O)N[C@H](C(=O)N[C@H](C(=O)N[C@@H](C)C(=O)N1CCC[C@H]1C(=O)N[C@@H](CC(C)C)C(=O)N[C@@H](Cc1c[nH]c2ccccc12)C(=O)N[C@@H](C)C(=O)N[C@H](C(=O)N[C@@H](Cc1ccc(O)cc1)C(=O)N[C@H](C(=O)N[C@@H](Cc1ccc(O)cc1)C(=O)N[C@@H](CCCNC(=N)N)C(N)=O)[C@@H](C)O)[C@@H](C)O)[C@@H](C)O)C(C)C (Palmitoyl-VTAPLWATYTYR-NH2)	
45	0.0413	CCCCCCCCCCCCCCCC(=O)N[C@H](C(=O)N[C@@H](C)C(=O)N[C@@H](CC(C)C)C(=O)N1CCC[C@H]1C(=O)N[C@@H](CC(C)C)C(=O)N[C@@H](Cc1c[nH]c2ccccc12)C(=O)N[C@@H](C)C(=O)N[C@H](C(=O)N[C@@H](Cc1ccc(O)cc1)C(=O)N[C@H](C(=O)N[C@@H](Cc1ccc(O)cc1)C(=O)N[C@@H](CCCNC(=N)N)C(N)=O)[C@@H](C)O)[C@@H](C)O)C(C)C (Palmitoyl-VALPLWATYTYR-NH2)	
